Assay results as given in patent US10047091B2, “Ionic liquid, lubricating agent, and magnetic recording medium” (Dexerials Corporation, priority 2012, dated 2018).
Read-outs that look alike come from different tables or passages of the source.

Key:
[1] = acid dissociation constant (pKa) in water
Source text: As used herein, pKa refers to an acid dissociation constant, i.e., an acid dissociation constant in water or an acid dissociation constant in acetonitrile.
The acid dissociation constant in water can be measured, for example, with reference to the method described in J. Chem. Res., Synop. […] Specifically, it can be measured by a combination of a spectrometer with potentiometry.

[2] = TG/DTA thermal analysis; format: physicochemical; details: for 10% weight loss temperature: TG; for 10% weight loss temperature / Exothermic peak temperature in DTA measurement: air, 30° C. to 600° C., heating rate 10° C./min; for nature of the weight loss in TG/DTA: exothermic suggests decomposition reaction
Method: The measurement is performed in a temperature range of 30° C. to 600° C. at a heating rate of 10° C./min while introducing air at a flow rate of 200 mL/min using EXSTAR 6000 (manufactured by Seiko Instruments Inc.). As a gas chromatography mass spectrometer, 6890/5975 MSD (manufactured by Agilent Technologies, Inc.) was used. The following measurement conditions are used: column: DB-1 (15 m, diameter: 0.25 mm, membrane thickness: 0.1 μm); injection temperature: 280° C.; column temperature: initial temperature of 40° C., hold for 5 min, heated to 340° C. at the heating rate of 20° C./min, and hold at the same temperature; mass spectrometric unit: 5975MSD; MS detection mode: EI^+; quadrupole temperature: 150° C.; ion source temperature: 300° C.; mass scanning range: m/z 33-700; and calibration: PFTBA.
Ionic liquids obtained from Examples 2, 28, and 29 and Comparative Examples 16 and 17 were subjected to a TG measurement using EXSTAR 6000 (Seiko Instruments Inc.) (Examples 30 and 31, and Comparative Examples 18 and 19). Z-DOL was also subjected to the TG measurement (Comparative Example 20). Weight loss was measured while purging air in a temperature range of 30° C. to 600° C. at a heating rate of 10° C./min.
The TG/DTA measurement was performed in a temperature range of 30° C. to 600° C. at a heating rate of 10° C./min while introducing air at a flow rate of 200 mL/min using EXSTAR 6000 (manufactured by Seiko Instruments Inc.). As a gas chromatography mass spectrometer, 6890/5975 MSD (manufactured by Agilent Technologies, Inc.) was used. The following measurement conditions were used: column: DB-1 (15 m, diameter: 0.25 mm, membrane thickness: 0.1 μm); injection temperature: 280° C.; column temperature: initial temperature of 40° C., hold for 5 min, heated to 340° C. at the heating rate of 20° C./min, and hold at the same temperature; mass spectrometric unit: 5975MSD; MS detection mode: EI^+; quadrupole temperature: 150° C.; ion source temperature: 300° C.; mass scanning range: m/z 33-700; and calibration: PFTBA.

[3] = acid dissociation constant (pKa) in acetonitrile; format: physicochemical
Source text: […]. Note that, the pKa values in acetonitrile is described in, for example, Blackwell Scientific Publications, Oxford, 1990, and J. Org. Chem. 2011, Vol. 76, pp. 391-395.
Although the acid dissociation constant in acetonitrile is not described herein because it is described in J. Org. Chem. 1998, 63, p. 7868 or J. Org. Chem. 1997, 62, p. 8479, it can be obtained by dissolving an acid in acetonitrile, titrating the resultant with a base, and measuring a spectrum by means of a UV-vis spectrometer.

[4] = cited from earlier work

Compound	10% weight loss temperature [2] [°C]	nature of the weight loss in TG/DTA [2]	ΔpKa [3]	pKa of Bronsted acid ([1]; in water)	also measured
CCCCCCCCCCCCCCCCCCN [octadecylamine]					pKa ([1]; water): 10.7
CCCCCCCCCCCCCCCCCCC1CCCCN2CCCN=C12.O=S(=O)(O)C(F)(F)C(F)(F)C(F)(F)C(F)(F)C(F)(F)C(F)(F)C(F)(F)C(F)(F)F (stereo not drawn) [Ionic liquid 15, 6-n-octadecyl-1,8-diazabicyclo[5.4.0]-7-undecene (C18-DBU) pentadecafluorooctane sulfonic acid salt]	384	exothermic	23.6		
CCCCCCCCCCCCCCCCCCN1CCCN2CCCN=C12.O=S1(=O)NS(=O)(=O)C(F)(F)C(F)(F)C1(F)F [Ionic liquid 18, C18-TBD cyclo-hexafluoropropane-1,3-bis(sulfonyl)imide salt]	380	exothermic	26.4		
C1CN=C2NCCCN2C1.O=S(=O)(O)C(F)(F)C(F)(F)C(F)(F)C(F)(F)C(F)(F)C(F)(F)C(F)(F)F [Comparative ionic liquid 9, TBD pentadecafluoro sulfonic acid salt, reference compound]	371	exothermic	24.8		Exothermic peak temperature in DTA measurement [2]: 425 °C
C1CCC2=NCCCN2CC1 [DBU, 1,8-diazabicyclo(5,4,0)-undecene-7]					pKa value ([4]; in water, cyclic amidine base): 12.5
CCCCCCCCCCCCCCCCCC(=O)O [stearic acid]					pKa ([1]; water): 5
CCCCCCCCCCCCCCCCCCN1CCCN2CCCN=C12.O=S(=O)(O)C(F)(F)C(F)(F)C(F)(F)C(F)(F)C(F)(F)C(F)(F)C(F)(F)C(F)(F)F [Ionic liquid 17, 7-n-octadecyl-1,5,7-triazabicyclo[4.4.0]-5-decene (C18-TBD) pentadecafluorooctane sulfonic acid salt]	381	exothermic	24.8		
CCCCCCCCCCCCCCCC1CCCCN2CCCN=C12.O=S(=O)(O)C(F)(F)C(F)(F)C(F)(F)C(F)(F)C(F)(F)C(F)(F)C(F)(F)C(F)(F)F [Ionic liquid 11]	372			−3.3	increase of 10% weight loss temperature ([2]; DBU derivative instead of stearylamine as Bronsted base): 45 °C; 10% weight loss temperature higher than that of Z-DOL ([2]; difference to Z-DOL): ≥ 200 °C; pKa of Bronsted base ([1]; in water): 12.5
CCCCCCCCCCCCCCCCCCN.CS(=O)(=O)O [Ionic liquid 4]				−2	
CCCCCCCCCCCCCCCCCCN.O=S(=O)(NS(=O)(=O)C(F)(F)C(F)(F)C(F)(F)C(F)(F)F)C(F)(F)C(F)(F)C(F)(F)C(F)(F)F [Ionic liquid 13, n-octadecylamine-bisnonafluorobutane sulfonylimide salt]	331	exothermic	18.3		
CCCCCCCCCCCCCCCCCCN.O=S(=O)(O)C(F)(F)C(F)(F)C(F)(F)C(F)(F)C(F)(F)C(F)(F)C(F)(F)C(F)(F)F [Ionic liquid 10]	327			−3.3	pKa of Bronsted base ([1]; in water): 10.7
CCCCCCCCCCCCCCCCCCN.O=C(O)C(F)(F)C(F)(F)C(F)(F)C(F)(F)C(F)(F)C(F)(F)C(F)(F)F [Comparative ionic liquid 6, reference compound]	205				pKa of Bronsted base ([1]; in water): 10.7; pKa of Bronsted acid ([1]; in water, listed as Comparative Example 16): 3.8
CCCCCCCCCCCCCCCCCCC1CCCCN2CCCN=C12.O=S1(=O)NS(=O)(=O)C(F)(F)C(F)(F)C1(F)F (stereo not drawn) [Ionic liquid 16, C18-DBU cyclo-hexafluoropropane-1,3-bis(sulfonyl)imide salt]	386	exothermic	25.2		Exothermic peak temperature in DTA measurement [2]: 474 °C
C1CCC2=NCCCN2CC1.O=S(=O)(O)C(F)(F)C(F)(F)C(F)(F)C(F)(F)C(F)(F)C(F)(F)C(F)(F)C(F)(F)F [Comparative ionic liquid 8, DBU pentadecafluorooctane sulfonic acid salt, reference compound]	393	exothermic	23.6		Exothermic peak temperature in DTA measurement [2]: 432 °C
CCCCCCCCCCCCCCCCCCN.O=C(O)C(F)(F)C(F)(F)C(F)(F)C(F)(F)C(F)(F)C(F)(F)C(F)(F)F [Comparative ionic liquid 2, reference compound]					pKa of Bronsted acid [1]: 2.5
CCCCCCCCCCCCCCCCCCN.O=S(=O)(O)O [Ionic liquid 3]				−3	
CCCCCCCCCCCCCCCCCCN.O=S1(=O)NS(=O)(=O)C(F)(F)C(F)(F)C1(F)F [Ionic liquid 14, n-octadecylamine-cyclo-hexafluoropropane-1,3-bis(sulfonyl)imide salt]	347	exothermic	19.2		Exothermic peak temperature in DTA measurement [2]: 417 °C
CCCCCCCCCCCCCCCCCCN.O=S(=O)(NS(=O)(=O)C(F)(F)F)C(F)(F)F [Ionic liquid 1, n-octadecylamine-bistrifluoromethane sulfonylimide salt]	329	exothermic	17.9		
O=C(O)C(F)(F)C(F)(F)C(F)(F)C(F)(F)C(F)(F)C(F)(F)C(F)(F)F [perfluorooctanoic acid]					pKa [1]: 2.5
CCCCCCCCCCCCCCCCCCN.OCC(F)(F)C(F)(F)C(F)(F)C(F)(F)C(F)(F)C(F)(F)C(F)(F)F [Comparative ionic liquid 7, reference compound]	62			7-9	pKa of Bronsted base ([1]; in water): 10.7; ΔpKa (pKa value of Bronsted base minus pKa value of Bronsted acid) ([1]; in water): ≤ 4; ΔpKa (pKa value of Bronsted base minus pKa value of Bronsted acid) ([1]; in water, listed as Comparative Example 17): 1.7-3.7
CCCCCCCCCCCCCCCCCC(=O)O.CCCCCCCCCCCCCCCCCCN [Comparative ionic liquid 3, reference compound]				5.0	
c1c[nH]cn1 [imidazole]					pKa value ([4]; solvent not stated): 14
CCCCCCCCCCCCCCCCCCN.O=C(O)C(F)(F)F [Comparative ionic liquid 1, reference compound]				0.5	
